Measurements taken from patent US7666890B2, “Synthesis and herbicidal activity of 1- (2-substituted benzo[d]thiazol-5-yl)-1H-1,2,4-triazol-5(4H)-one derivatives” (Huazhong Normal University, priority 2007, dated 2010).
Where two headings read alike, the source gives them in different places.

Key:
Assay in all cases: Test of herbicidal activities (greenhouse pot method)
Type in all cases: in vivo
Amaranthus retroflexus = conditions: for inhibition at 300 g/ha: Amaranthus retroflexus, 360 h, read-out: Herbicidal activity Amaranthus retroflexus (inhibition level)
Procedure, shortened: (§1)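 Greenhouse pot test on weeds grown in mixed garden/mountain/humus soil at 15-30° C; pre- and post-emergence spray at a single dose of 300 g ai./h via automatic spraying tower (0.2 MPa). Inhibition scored after 15 days into five levels A (90-100%) to E (<50%); triplicate with blank control.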

Brassica juncea = conditions: for inhibition at 300 g/ha: Brassica juncea, 360 h, read-out: Herbicidal activity Brassica juncea (inhibition level)
Procedure, shortened: as §1

Chenopodium album = conditions: for inhibition at 300 g/ha: Chenopodium album, 360 h, read-out: Herbicidal activity Chenopodium album (inhibition level)
Procedure, shortened: as §1

Digiatria sanguinalis = conditions: for inhibition at 300 g/ha: 360 h, read-out: Herbicidal activity Digiatria sanguinalis (inhibition level)
Procedure, shortened: as §1

Echinochloa crusgalli = conditions: for inhibition at 300 g/ha: Echinochloa crus-galli, 360 h, read-out: Herbicidal activity Echinochloa crusgalli (inhibition level)
Procedure, shortened: as §1

Setaria viridis = conditions: for inhibition at 300 g/ha: Setaria viridis, 360 h, read-out: Herbicidal activity Setaria viridis (inhibition level)
Procedure, shortened: as §1

[1] = single dose 300 g ai./h, treated before/after germination, 15 days later, greenhouse pot

Row | Compound | Herbicidal activity Amaranthus retroflexus (inhibition level) (Amaranthus retroflexus; [1]) | Herbicidal activity Brassica juncea (inhibition level) (Brassica juncea; [1]) | Herbicidal activity Chenopodium album (inhibition level) (Chenopodium album; [1]) | Herbicidal activity Digiatria sanguinalis (inhibition level) (Digiatria sanguinalis; [1]) | Herbicidal activity Echinochloa crusgalli (inhibition level) (Echinochloa crusgalli; [1]) | Herbicidal activity Setaria viridis (inhibition level) (Setaria viridis; [1]) | other results
1 | COCCSc1nc2cc(-n3nc(C)n(C(F)F)c3=O)c(Cl)cc2s1 [Compound 76] | A (90 ≦ A ≦ 100%) | C (60 ≦ C < 80%) | C (60 ≦ C < 80%) | A (90 ≦ A ≦ 100%) | A (90 ≦ A ≦ 100%) | B (80 ≦ B < 90%) | –
2 | CCSc1nc2cc(-n3nc(C)n(C(F)F)c3=O)c(Br)cc2s1 [Compound 80] | A (90 ≦ A ≦ 100%) | A (90 ≦ A ≦ 100%) | E (E < 50%) | B (80 ≦ B < 90%) | A (90 ≦ A ≦ 100%) | A (90 ≦ A ≦ 100%) | –
3 | CCOC(=O)CS(=O)(=O)c1nc2cc(-n3nc(C)n(C(F)F)c3=O)c(Cl)cc2s1 [Compound 70] | B (80 ≦ B < 90%) | B (80 ≦ B < 90%) | B (80 ≦ B < 90%) | B (80 ≦ B < 90%) | B (80 ≦ B < 90%) | B (80 ≦ B < 90%) | –
4 | CCOC(=O)CSc1nc2cc(-n3nc(C)n(C(F)F)c3=O)c(F)cc2s1 [Compound 93, Ethyl 1-{5-[4-difluoromethyl-3-methyl-5-oxo-4,5-dihydro-1,2,4-triazol-1-yl]-6-fluorobenzo[d]thiazol-2-ylthio}acetate] | – | – | – | – | – | – | inhibition at 300 g/ha (Amaranthus retroflexus): 90 to 100%; inhibition at 300 g/ha (Brassica juncea): 90 to 100%; inhibition at 300 g/ha (Chenopodium album): 90 to 100%; inhibition at 300 g/ha (Digiatria sanguinalis): 90 to 100%; inhibition at 300 g/ha (Echinochloa crusgalli): 90 to 100%; inhibition at 300 g/ha (Setaria viridis): 80 to 90%
5 | CCOC(=O)CSc1nc2cc(-n3nc(C)n(C(F)F)c3=O)c(Cl)cc2s1 [Compound 98] | – | – | – | – | – | – | inhibition at 300 g/ha (Amaranthus retroflexus; [1]): 90 to 100%; inhibition at 300 g/ha (Brassica juncea; [1]): 90 to 100%; inhibition at 300 g/ha (Chenopodium album; [1]): 80 to 90%; inhibition at 300 g/ha (Digiatria sanguinalis; [1]): 90 to 100%; inhibition at 300 g/ha (Echinochloa crusgalli; [1]): 90 to 100%; inhibition at 300 g/ha (Setaria viridis; [1]): 90 to 100%
6 | CSc1nc2cc(-n3nc(C(F)(F)F)n(C(F)F)c3=O)c(Cl)cc2s1 [Compound 125] | A (90 ≦ A ≦ 100%) | C (60 ≦ C < 80%) | B (80 ≦ B < 90%) | B (80 ≦ B < 90%) | B (80 ≦ B < 90%) | C (60 ≦ C < 80%) | –
7 | Cc1nn(-c2cc3nc(SCc4ccc(Br)cc4F)sc3cc2F)c(=O)n1C(F)F [Compound 22] | B (80 ≦ B < 90%) | D (50 ≦ D < 60%) | D (50 ≦ D < 60%) | C (60 ≦ C < 80%) | C (60 ≦ C < 80%) | C (60 ≦ C < 80%) | –
8 | Cc1nn(-c2cc3nc(SCc4ccc(F)cc4F)sc3cc2F)c(=O)n1C(F)F [Compound 12] | A (90 ≦ A ≦ 100%) | C (60 ≦ C < 80%) | E (E < 50%) | B (80 ≦ B < 90%) | E (E < 50%) | B (80 ≦ B < 90%) | –
9 | CCOC(=O)C(C)S(=O)(=O)c1nc2cc(-n3nc(C)n(C(F)F)c3=O)c(Br)cc2s1 (stereo not drawn) [Compound 59] | A (90 ≦ A ≦ 100%) | A (90 ≦ A ≦ 100%) | B (80 ≦ B < 90%) | C (60 ≦ C < 80%) | D (50 ≦ D < 60%) | C (60 ≦ C < 80%) | –
10 | CCOC(=O)C(C)S(=O)(=O)c1nc2cc(-n3nc(C)n(C(F)F)c3=O)c(F)cc2s1 (stereo not drawn) [Compound 61] | A (90 ≦ A ≦ 100%) | A (90 ≦ A ≦ 100%) | B (80 ≦ B < 90%) | A (90 ≦ A ≦ 100%) | C (60 ≦ C < 80%) | C (60 ≦ C < 80%) | –
11 | C=CCS(=O)(=O)c1nc2cc(-n3nc(C)n(C(F)F)c3=O)c(Cl)cc2s1 [Compound 71] | C (60 ≦ C < 80%) | B (80 ≦ B < 90%) | B (80 ≦ B < 90%) | C (60 ≦ C < 80%) | C (60 ≦ C < 80%) | B (80 ≦ B < 90%) | –
12 | Cc1nn(-c2cc3nc(SCc4c(F)cccc4F)sc3cc2Cl)c(=O)n1C(F)F [Compound 9] | B (80 ≦ B < 90%) | A (90 ≦ A ≦ 100%) | C (60 ≦ C < 80%) | B (80 ≦ B < 90%) | B (80 ≦ B < 90%) | E (E < 50%) | –
13 | CCOC(=O)C(C)Sc1nc2cc(-n3nc(C)n(C(F)F)c3=O)c(F)cc2s1 (stereo not drawn) [Compound 89] | B (80 ≦ B < 90%) | B (80 ≦ B < 90%) | C (60 ≦ C < 80%) | A (90 ≦ A ≦ 100%) | A (90 ≦ A ≦ 100%) | A (90 ≦ A ≦ 100%) | –
14 | Cc1nn(-c2cc3nc(S(C)(=O)=O)sc3cc2F)c(=O)n1C(F)F [Compound 62] | C (60 ≦ C < 80%) | D (50 ≦ D < 60%) | D (50 ≦ D < 60%) | B (80 ≦ B < 90%) | A (90 ≦ A ≦ 100%) | A (90 ≦ A ≦ 100%) | –
15 | CCCCSc1nc2cc(-n3nc(C)n(C(F)F)c3=O)c(Cl)cc2s1 [Compound 97] | B (80 ≦ B < 90%) | B (80 ≦ B < 90%) | B (80 ≦ B < 90%) | C (60 ≦ C < 80%) | B (80 ≦ B < 90%) | C (60 ≦ C < 80%) | –
16 | CCOC(=O)C(C)[S+]([O-])c1nc2cc(-n3nc(C)n(C(F)F)c3=O)c(Br)cc2s1 (stereo not drawn) [Compound 116] | B (80 ≦ B < 90%) | A (90 ≦ A ≦ 100%) | B (80 ≦ B < 90%) | C (60 ≦ C < 80%) | D (50 ≦ D < 60%) | B (80 ≦ B < 90%) | –
